Assay results published in publication PMC3356437 (Peptides, 2012).
Values after ≈ are worked out from the molar mass of the structure shown. Where two headings read alike, the source gives them in different places. Where a SMILES comes first, the peptide text is derived from it.

What was measured:
[1] = tested on: P. gingivalis W50; assay type: cell-based, Porphyromonas gingivalis
[2] = tested on: E. coli DHα5; assay type: cell-based, Escherichia coli
[3] = tested on: P. aeruginosa PAO1; assay type: cell-based, Pseudomonas aeruginosa
[4] = tested on: red blood cells; details: cited from earlier work
[5] = tested on: E. coli; assay type: cell-based, Escherichia coli; details: 50% saliva (45% in legend) in PBS, 2 hours, 35°C
[6] = tested on: P. gingivalis (53977, DPG3, W50); test: Bacterial killing assay; assay type: cell-based, Porphyromonas gingivalis; details: three strains, 200 μg/ml peptide, 2 ½ hours, 35°C, CFU
[7] = tested on: red blood cells
[8] = target: T1, LPS-binding protein (LBP) (Homo sapiens, UniProt P18428); test: LPS binding to LPS-binding protein; details: LPS + 180–200 μg/ml GL13K; mean ± SEM, N=3
T1 sequence (P18428 26-481): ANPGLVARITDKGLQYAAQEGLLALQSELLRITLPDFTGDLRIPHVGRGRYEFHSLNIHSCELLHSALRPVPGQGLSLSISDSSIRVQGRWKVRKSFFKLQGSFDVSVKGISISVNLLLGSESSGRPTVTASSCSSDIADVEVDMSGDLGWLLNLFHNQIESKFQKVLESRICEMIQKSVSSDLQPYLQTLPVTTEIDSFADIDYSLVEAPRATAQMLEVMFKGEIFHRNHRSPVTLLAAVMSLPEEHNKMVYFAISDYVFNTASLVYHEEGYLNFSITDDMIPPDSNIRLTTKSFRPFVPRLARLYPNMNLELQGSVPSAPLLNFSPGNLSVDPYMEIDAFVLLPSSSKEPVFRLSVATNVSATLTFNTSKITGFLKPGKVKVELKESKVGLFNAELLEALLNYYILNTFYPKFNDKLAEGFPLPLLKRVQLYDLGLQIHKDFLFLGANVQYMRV

| Molecule | MIC ([1]; W50) [µg/mL] | MIC [2] [µg/mL] | MIC, 50% saliva [2] [µg/mL] | MIC [3] [µg/mL] | Reduction of CFU / bactericidal activity in the presence of saliva [5] | Bactericidal activity [6] | other results |
| --- | --- | --- | --- | --- | --- | --- | --- |
| CC[C@H](C)[C@H](NC(=O)[C@H](CCC(N)=O)NC(=O)CN)C(=O)N[C@H](C(=O)N[C@@H](CC(N)=O)C(=O)N[C@@H](CC(C)C)C(=O)N[C@@H](CCCCN)C(N)=O)[C@@H](C)CC [GK7NH2] (H-GQIINLK-NH2) | >167 | >200 | >167 | >167 |  |  |  |
| CC[C@H](C)[C@H](NC(=O)[C@H](CCC(N)=O)NC(=O)CN)C(=O)N[C@H](C(=O)N[C@@H](CC(N)=O)C(=O)N[C@@H](CC(C)C)C(=O)N[C@@H](CCCCN)C(=O)N[C@@H](C)C(=O)N[C@@H](CO)C(=O)N[C@@H](CC(C)C)C(=O)N[C@@H](CC(=O)O)C(=O)N[C@@H](CC(C)C)C(=O)N[C@@H](CC(C)C)C(N)=O)[C@@H](C)CC [GL13NH2] (H-GQIINLKASLDLL-NH2) | >167 | >200 |  | >167 |  |  | Hemagglutination (caused, implied by contrast with GL13K) [4]: hemagglutination |
| polymyxin B |  |  |  |  | retained bactericidal activity | ineffective |  |
| CC[C@H](C)[C@H](NC(=O)[C@H](CCCCN)NC(=O)[C@H](CCC(=O)O)NC(=O)[C@H](CCCCN)NC(=O)[C@H](CO)NC(=O)[C@H](CCCCN)NC(=O)[C@H](CCCNC(=N)N)NC(=O)[C@H](Cc1ccccc1)NC(=O)[C@H](Cc1ccccc1)NC(=O)[C@H](CC(=O)O)NC(=O)CNC(=O)[C@H](CC(C)C)NC(=O)[C@@H](N)CC(C)C)C(=O)NCC(=O)N[C@@H](CCCCN)C(=O)N[C@@H](CCC(=O)O)C(=O)N[C@@H](Cc1ccccc1)C(=O)N[C@@H](CCCCN)C(=O)N[C@@H](CCCNC(=N)N)C(=O)N[C@H](C(=O)N[C@H](C(=O)N[C@@H](CCC(N)=O)C(=O)N[C@@H](CCCNC(=N)N)C(=O)N[C@H](C(=O)N[C@@H](CCCCN)C(=O)N[C@@H](CC(=O)O)C(=O)N[C@@H](Cc1ccccc1)C(=O)N[C@@H](CC(C)C)C(=O)N[C@@H](CCCNC(=N)N)C(=O)N[C@@H](CC(N)=O)C(=O)N[C@@H](CC(C)C)C(=O)N[C@H](C(=O)N1CCC[C@H]1C(=O)N[C@@H](CCCNC(=N)N)C(=O)N[C@H](C(=O)N[C@@H](CCC(=O)O)C(=O)N[C@@H](CO)C(=O)O)[C@@H](C)O)C(C)C)[C@@H](C)CC)C(C)C)[C@@H](C)CC [LL-37] |  |  |  |  | less than 90% | killed | MIC ([1]; broth dilution in Pg broth, 10^4 CFU, OD 570 nm, seven independent experiments): 25 µg/mL (≈ 5.56 µM) |
| CC[C@H](C)[C@H](NC(=O)[C@H](CCCCN)NC(=O)CN)C(=O)N[C@H](C(=O)N[C@@H](CCCCN)C(=O)N[C@@H](CC(C)C)C(=O)N[C@@H](CCCCN)C(=O)N[C@@H](C)C(=O)N[C@@H](CO)C(=O)N[C@@H](CC(C)C)C(=O)N[C@@H](CCCCN)C(=O)N[C@@H](CC(C)C)C(=O)N[C@@H](CC(C)C)C(N)=O)[C@@H](C)CC [GL13K] (H-GKIIKLKASLKLL-NH2) |  | 5 (≈ 3.51 µM) | 50 (≈ 35.1 µM) |  |  |  | Hemagglutination [7]: did not cause hemagglutination; LBP binding of LPS relative to LPS alone (100%) [8]: 45.3%±9.7% (N=3) |
